Measurements from US7829542B2, “Prophylactic and therapeutic treatment of infectious and other diseases with immunoeffector compounds” (Corixa Corporation, priority 2002, dated 2010).

Columns and labels:
[1] = tested on: L. monocytogenes 10403 serotype; assay: Murine Listeria monocytogenes challenge model (induction of non-specific resistance); type: in vivo, mice; settings: 1 μg intravenously in 0.2% TEOA, i.v. challenge with ~10^5 L. monocytogenes two days later, spleen CFUs two days after challenge
Method: This example provides experiments evaluating the induction of non-specific resistance in the murine Listeria monocytogenes challenge model performed using the compounds prepared in examples 1, 2 and 3. Mice (5 per group) were treated intravenously with the 1 μg of a cyclic AGP or MPL solublized in 0.2% triethanolamine (TEOA). Two days later the mice were challenged intravenously with a ˜10^5 L. monocytogenes 10403 serotype (stock culture provided by Jory Baldridge, Washington State University, Pullman, Wash.). Two days after the challenge the mice were sacrificed and the number of colony forming units (CFUs) in the spleens of individual mice were determined by plating 10-fold serial dilutions of splenic homogenates on tryptic soy agar plates. The degree of protection afforded by a given AGP or MPL was calculated by subtracting the average number of bacteria per spleen (log 10 value) in the group of mice treated with a given compound, from the average number of bacteria per spleen (log 10 value) in a control group that was “sham” treated with vehicle (0.2% TEOA) prior to challenge with L. monocytogenes.

Influenza A/HK/68 = assay: Protection against lethal influenza challenge by prophylactic administration; type: in vivo, BALB/c mice; settings: 20 μg intranasally 48 hours prior to lethal intranasal challenge (5 LD50)
Method: This example provides experiments evaluating protection against a lethal challenge with influenza in cyclic AGP-treated mice. BALB/c mice (10 mice per group) were treated intranasally with 20 μg of the compounds of examples 1, 2 and 3, or with MPL, 48 hours prior to an lethal intranasal challenge of Influenza A/HK/68 (5 LD50). Protection was judged by survival, observations of clinical symptoms (ruffled fur, hunched posture and labored breathing), and prevention of weight loss for 21 days following the challenge.

Row | Compound | degree of protection: average bacteria per spleen (log 10) in the vehicle control group minus that in the treated group [1] [log 10 units] | survival (in words) (Influenza A/HK/68; followed for 21 days) | protection compared with the vehicle control (in words) (Influenza A/HK/68) | survival rate (Influenza A/HK/68; followed for 21 days) [%]
1 | N-[(R)-3-Tetradecanoyloxytetradecanoyl]-(S)-2-pyrrolidinylmethyl 2-Deoxy-4-O-phosphono-2-[(R)-3-tetradecanoyloxytetradecanoylamino]-3-O-[(R)-3-tetradecanoyloxytetradecanoyl]-β-D-glucopyranoside Triethylammonium Salt [Example 1] | 0.2 | No mice treated with the compound of example 1 survived |  | 
2 | CCCCCCCCCCC[C@H](CC(=O)N[C@H]1[C@H](OC[C@@H]2CCCN2C(=O)C[C@@H](CCCCCCCCCCC)OC(=O)CCCCCCCCC)O[C@H](CO)[C@@H](OP(=O)(O)O)[C@@H]1OC(=O)C[C@@H](CCCCCCCCCCC)OC(=O)CCCCCCCCC)OC(=O)CCCCCCCCC.CCN(CC)CC [Example 3, N-[(R)-3-Decanoyloxytetradecanoyl]-(S)-2-pyrrolidinylmethyl 2-Deoxy-4-O-phosphono-2-[(R)-3-Decanoyloxytetradecanoylamino]-3-O-[(R)-3-Decanoyloxytetradecanoyl]-β-D-glucopyranoside Triethylammonium Salt] | ~0.9 |  | enhanced protection | 60
3 | CCCCCCCCCCCC(=O)O[C@H](CCCCCCCCCCC)CC(=O)N[C@H]1[C@H](OC[C@@H]2CCCN2C(=O)C[C@@H](CCCCCCCCCCC)OC(=O)CCCCCCCCCCC)O[C@H](CO)[C@@H](OP(=O)(O)O)[C@@H]1OC(=O)C[C@@H](CCCCCCCCCCC)OC(=O)CCCCCCCCCCC.CCN(CC)CC [Example 2, N-[(R)-3-Dodecanoyloxytetradecanoyl]-(S)-2-pyrrolidinylmethyl 2-Deoxy-4-O-phosphono-2-[(R)-3-dodecanoyloxy-tetradecanoylamino]-3-O-[(R)-3-dodecanoyloxytetradecanoyl]-β-D-glucopyranoside Triethylammonium Salt] | 0.7 |  | enhanced protection | 40
